# Reference: patent publication US11981658B2, “Substituted aminopyridine compounds as EGFR inhibitors” (YUHAN CORPORATION, priority 2021, dated 2024)
# Like-named read-outs stand apart in the source and are kept apart here.
# Experiments:
# EGFR Del19/C797S = EGFR Del19/C797S (Homo sapiens, UniProt P00533, C797S/DEL746-750); assay: Biochemical EGFR kinase inhibition assay (Lance Ultra TR-FRET), double mutant del19/C797S
# Summary of the method: (§1)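 Enzyme reactions lasted 1 hour at room temperature with test compounds between 0.003 and 10 μM, followed by 10 mM EDTA quench.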
# EGFR Del19/T790M/C797S = EGFR Del19/T790M/C797S (Homo sapiens, UniProt P00533, C797S/DEL746-750/T790M); assay: Biochemical EGFR kinase inhibition assay (Lance Ultra TR-FRET), triple mutant del19/T790M/C797S
# Chain of EGFR Del19/T790M/C797S (P00533 with tags, fused parts or gaps DEL746-750/T790M/C797S): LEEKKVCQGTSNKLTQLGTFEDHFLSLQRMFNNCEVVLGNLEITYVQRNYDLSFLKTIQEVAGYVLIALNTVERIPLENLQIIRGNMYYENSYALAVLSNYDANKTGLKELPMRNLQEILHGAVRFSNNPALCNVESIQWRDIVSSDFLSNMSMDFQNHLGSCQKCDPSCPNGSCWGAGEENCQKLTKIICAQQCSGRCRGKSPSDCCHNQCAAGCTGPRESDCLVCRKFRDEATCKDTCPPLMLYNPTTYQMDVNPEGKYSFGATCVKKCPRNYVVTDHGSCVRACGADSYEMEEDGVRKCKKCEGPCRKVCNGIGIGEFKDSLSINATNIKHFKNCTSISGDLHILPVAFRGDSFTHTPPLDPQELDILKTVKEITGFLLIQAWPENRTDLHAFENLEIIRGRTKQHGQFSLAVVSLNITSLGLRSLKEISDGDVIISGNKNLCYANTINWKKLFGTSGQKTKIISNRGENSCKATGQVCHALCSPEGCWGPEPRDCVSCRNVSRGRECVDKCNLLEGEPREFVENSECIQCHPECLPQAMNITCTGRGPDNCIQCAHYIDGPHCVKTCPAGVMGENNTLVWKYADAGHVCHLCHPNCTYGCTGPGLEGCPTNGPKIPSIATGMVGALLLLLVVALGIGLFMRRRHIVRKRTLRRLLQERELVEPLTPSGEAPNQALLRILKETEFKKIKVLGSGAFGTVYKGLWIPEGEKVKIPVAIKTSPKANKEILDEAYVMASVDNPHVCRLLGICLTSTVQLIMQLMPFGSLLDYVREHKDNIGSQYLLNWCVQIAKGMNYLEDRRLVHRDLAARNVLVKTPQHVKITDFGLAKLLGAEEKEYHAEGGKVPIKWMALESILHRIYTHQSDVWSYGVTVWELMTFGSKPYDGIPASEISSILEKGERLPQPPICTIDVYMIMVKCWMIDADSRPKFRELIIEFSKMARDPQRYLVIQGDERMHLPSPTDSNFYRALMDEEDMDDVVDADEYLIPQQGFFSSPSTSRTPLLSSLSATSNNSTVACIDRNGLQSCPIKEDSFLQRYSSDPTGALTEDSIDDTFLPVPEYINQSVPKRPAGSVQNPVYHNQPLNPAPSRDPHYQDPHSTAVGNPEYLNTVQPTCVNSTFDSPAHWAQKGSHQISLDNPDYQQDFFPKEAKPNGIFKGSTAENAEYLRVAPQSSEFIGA
# Summary of the method: as §1
# EGFR wildtype (WT) = EGFR wildtype (WT) (Homo sapiens, UniProt P00533); assay: Biochemical EGFR kinase inhibition assay (Lance Ultra TR-FRET), wildtype
# Chain of EGFR wildtype (WT) (P00533 25-1210): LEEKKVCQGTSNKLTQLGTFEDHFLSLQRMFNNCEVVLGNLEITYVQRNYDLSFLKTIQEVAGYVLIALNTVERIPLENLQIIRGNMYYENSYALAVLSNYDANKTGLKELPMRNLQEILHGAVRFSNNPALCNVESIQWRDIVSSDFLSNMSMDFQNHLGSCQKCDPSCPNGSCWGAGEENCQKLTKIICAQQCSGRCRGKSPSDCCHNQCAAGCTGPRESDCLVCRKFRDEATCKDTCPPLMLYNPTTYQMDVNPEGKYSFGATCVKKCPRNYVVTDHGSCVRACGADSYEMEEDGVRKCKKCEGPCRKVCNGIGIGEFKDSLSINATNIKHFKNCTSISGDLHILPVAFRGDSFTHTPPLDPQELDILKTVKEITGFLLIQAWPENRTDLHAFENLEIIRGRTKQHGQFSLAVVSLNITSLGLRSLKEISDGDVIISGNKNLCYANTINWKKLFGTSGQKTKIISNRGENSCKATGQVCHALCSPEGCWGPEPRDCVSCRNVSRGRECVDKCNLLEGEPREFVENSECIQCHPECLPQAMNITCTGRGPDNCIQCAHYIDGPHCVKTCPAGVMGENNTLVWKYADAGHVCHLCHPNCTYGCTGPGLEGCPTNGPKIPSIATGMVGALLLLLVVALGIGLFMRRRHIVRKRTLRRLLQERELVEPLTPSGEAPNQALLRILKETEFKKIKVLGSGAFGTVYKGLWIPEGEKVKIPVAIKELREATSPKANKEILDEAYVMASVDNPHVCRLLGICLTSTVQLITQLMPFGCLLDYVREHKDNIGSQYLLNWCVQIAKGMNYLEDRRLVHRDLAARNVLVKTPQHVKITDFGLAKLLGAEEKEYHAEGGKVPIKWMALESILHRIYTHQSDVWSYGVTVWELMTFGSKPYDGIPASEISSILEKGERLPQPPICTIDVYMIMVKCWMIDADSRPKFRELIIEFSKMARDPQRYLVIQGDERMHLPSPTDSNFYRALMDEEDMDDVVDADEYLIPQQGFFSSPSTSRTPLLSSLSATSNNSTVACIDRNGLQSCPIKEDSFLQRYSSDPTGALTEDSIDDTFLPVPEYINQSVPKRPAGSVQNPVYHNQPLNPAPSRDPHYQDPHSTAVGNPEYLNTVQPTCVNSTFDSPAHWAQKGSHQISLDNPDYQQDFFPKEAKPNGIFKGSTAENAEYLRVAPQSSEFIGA
# Summary of the method: as §1
# EGFR L858R/T790M/C797S = EGFR L858R/T790M/C797S (Homo sapiens, UniProt P00533, C797S/L858R/T790M); assay: Biochemical EGFR kinase inhibition assay (Lance Ultra TR-FRET), triple mutant L858R/T790M/C797S
# Summary of the method: as §1
# EGFR L858R/C797S = EGFR L858R/C797S (Homo sapiens, UniProt P00533, C797S/L858R); assay: Biochemical EGFR kinase inhibition assay (Lance Ultra TR-FRET), double mutant L858R/C797S
# Chain of EGFR L858R/C797S (P00533 25-1210 C797S/L858R): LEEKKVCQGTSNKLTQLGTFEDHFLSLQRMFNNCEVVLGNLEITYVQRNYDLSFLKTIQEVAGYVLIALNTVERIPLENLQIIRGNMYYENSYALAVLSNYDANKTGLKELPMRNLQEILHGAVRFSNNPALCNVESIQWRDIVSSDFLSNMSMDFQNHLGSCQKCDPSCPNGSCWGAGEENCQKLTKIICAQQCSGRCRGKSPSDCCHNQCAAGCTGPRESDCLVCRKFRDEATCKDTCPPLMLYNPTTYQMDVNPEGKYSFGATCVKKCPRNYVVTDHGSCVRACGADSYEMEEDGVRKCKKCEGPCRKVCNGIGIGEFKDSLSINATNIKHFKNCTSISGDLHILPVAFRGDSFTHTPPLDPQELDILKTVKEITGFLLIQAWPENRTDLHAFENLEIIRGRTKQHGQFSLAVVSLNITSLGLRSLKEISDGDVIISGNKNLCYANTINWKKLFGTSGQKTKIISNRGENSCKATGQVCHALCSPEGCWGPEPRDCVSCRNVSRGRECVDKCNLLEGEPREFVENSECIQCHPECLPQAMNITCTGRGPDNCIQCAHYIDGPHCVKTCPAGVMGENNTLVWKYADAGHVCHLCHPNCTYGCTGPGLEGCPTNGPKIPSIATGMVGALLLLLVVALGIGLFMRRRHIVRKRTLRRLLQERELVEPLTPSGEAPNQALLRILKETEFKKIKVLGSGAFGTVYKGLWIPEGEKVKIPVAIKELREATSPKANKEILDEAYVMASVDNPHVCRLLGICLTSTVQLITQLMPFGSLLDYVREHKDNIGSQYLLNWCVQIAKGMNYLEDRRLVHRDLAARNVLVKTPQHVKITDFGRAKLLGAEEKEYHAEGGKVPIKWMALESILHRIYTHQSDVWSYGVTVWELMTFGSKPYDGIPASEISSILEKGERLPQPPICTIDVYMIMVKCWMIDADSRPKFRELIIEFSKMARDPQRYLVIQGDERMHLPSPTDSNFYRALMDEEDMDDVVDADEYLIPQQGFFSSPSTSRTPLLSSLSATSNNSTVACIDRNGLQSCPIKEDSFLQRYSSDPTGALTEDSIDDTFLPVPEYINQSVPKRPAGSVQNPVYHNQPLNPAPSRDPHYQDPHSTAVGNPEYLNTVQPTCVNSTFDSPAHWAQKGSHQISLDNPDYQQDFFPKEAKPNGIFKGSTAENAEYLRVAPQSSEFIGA
# Summary of the method: as §1
# [1] = IC50 Del19/C797S (nM), 100 μM ATP
# [2] = Km ATP, read-out: IC50 Del19/C797S (nM) Km ATP
# [3] = IC50 Del19/T790M/C797S (nM), 100 μM ATP
# [4] = Km ATP, read-out: IC50 Del19/T790M/C797S (nM) Km ATP
# [5] = Km ATP, read-out: IC50 WT (nM) Km ATP
# [6] = IC50 L858R/T790M/C797S (nM), 100 μM ATP
# [7] = Km ATP, read-out: IC50 L858R/T790M/C797S (nM) Km ATP
# [8] = IC50 L858R/C797S (nM), 100 μM ATP
# [9] = Km ATP, read-out: IC50 L858R/C797S (nM) Km ATP
# [10] = ATP at Km, read-out: IC50 Del19/C797S (nM), Km ATP
# [11] = ATP at Km, read-out: IC50 Del19/T790M/C797S (nM), Km ATP
# [12] = ATP at Km, read-out: IC50 WT (nM), Km ATP
# [13] = ATP at Km, read-out: IC50 L858R/T790M/C797S (nM), Km ATP
# [14] = ATP at Km, read-out: IC50 L858R/C797S (nM), Km ATP
# Chain of EGFR Del19/C797S (P00533 with tags, fused parts or gaps DEL746-750/C797S): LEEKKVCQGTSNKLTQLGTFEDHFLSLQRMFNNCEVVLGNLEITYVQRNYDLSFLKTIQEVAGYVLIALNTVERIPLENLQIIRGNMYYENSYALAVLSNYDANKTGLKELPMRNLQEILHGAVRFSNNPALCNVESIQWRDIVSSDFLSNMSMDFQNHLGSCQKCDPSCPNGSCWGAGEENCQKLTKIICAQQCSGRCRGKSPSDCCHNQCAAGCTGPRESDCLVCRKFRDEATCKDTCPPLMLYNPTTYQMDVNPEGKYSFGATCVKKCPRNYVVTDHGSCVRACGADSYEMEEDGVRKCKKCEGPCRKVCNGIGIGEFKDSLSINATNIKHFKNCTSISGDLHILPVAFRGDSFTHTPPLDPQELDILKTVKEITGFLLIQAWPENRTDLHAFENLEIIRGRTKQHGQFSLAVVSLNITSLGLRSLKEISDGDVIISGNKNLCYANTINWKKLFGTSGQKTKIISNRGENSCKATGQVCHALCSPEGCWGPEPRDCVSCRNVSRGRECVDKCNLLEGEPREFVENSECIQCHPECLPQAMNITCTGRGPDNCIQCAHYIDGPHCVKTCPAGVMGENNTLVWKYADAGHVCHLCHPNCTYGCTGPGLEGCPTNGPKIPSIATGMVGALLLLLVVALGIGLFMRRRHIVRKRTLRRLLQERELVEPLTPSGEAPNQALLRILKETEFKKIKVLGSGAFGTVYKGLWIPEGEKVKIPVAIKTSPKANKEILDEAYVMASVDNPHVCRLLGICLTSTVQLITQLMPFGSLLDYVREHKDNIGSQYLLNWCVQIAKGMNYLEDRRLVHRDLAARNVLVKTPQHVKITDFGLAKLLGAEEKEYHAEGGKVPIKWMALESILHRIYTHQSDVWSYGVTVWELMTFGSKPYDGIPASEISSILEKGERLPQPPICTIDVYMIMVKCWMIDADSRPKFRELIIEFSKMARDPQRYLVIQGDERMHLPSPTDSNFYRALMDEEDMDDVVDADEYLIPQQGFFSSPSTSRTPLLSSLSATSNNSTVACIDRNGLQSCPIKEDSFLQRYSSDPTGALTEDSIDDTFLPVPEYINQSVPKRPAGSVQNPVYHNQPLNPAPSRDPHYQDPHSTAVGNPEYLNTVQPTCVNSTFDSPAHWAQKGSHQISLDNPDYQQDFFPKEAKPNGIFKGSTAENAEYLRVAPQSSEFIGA
Compound,IC50 (EGFR Del19/C797S; [1]) [nM],IC50 (EGFR Del19/C797S; [2]) [nM],IC50 (EGFR Del19/T790M/C797S; [3]) [nM],IC50 (EGFR Del19/T790M/C797S; [4]) [nM],"IC50 (EGFR wildtype (WT); IC50 WT (nM), 100 μM ATP) [nM]",IC50 (EGFR wildtype (WT); [5]) [nM],IC50 (EGFR L858R/T790M/C797S; [6]) [nM],IC50 (EGFR L858R/T790M/C797S; [7]) [nM],IC50 (EGFR L858R/C797S; [8]) [nM],IC50 (EGFR L858R/C797S; [9]) [nM],IC50 (EGFR Del19/C797S; [10]) [nM],IC50 (EGFR Del19/T790M/C797S; [11]) [nM],IC50 (EGFR wildtype (WT); [12]) [nM],IC50 (EGFR L858R/T790M/C797S; [13]) [nM],IC50 (EGFR L858R/C797S; [14]) [nM],"IC50 (EGFR Del19/C797S; read-out: IC50 Del19/C797S (nM), 100 μM ATP) [nM]","IC50 (EGFR Del19/T790M/C797S; read-out: IC50 Del19/T790M/C797S (nM), 100 μM ATP) [nM]","IC50 (EGFR wildtype (WT); read-out: IC50 WT (nM), 100 μM ATP) [nM]","IC50 (EGFR L858R/T790M/C797S; read-out: IC50 L858R/T790M/C797S (nM), 100 μM ATP) [nM]","IC50 (EGFR L858R/C797S; read-out: IC50 L858R/C797S (nM), 100 μM ATP) [nM]"
"CC1(CO)CCN(c2cc(Nc3ccnc(-c4cnn(S(=O)(=O)C5CC5)c4)n3)ncc2C#Cc2cnn3c2CNCC3)CC1 [Example 149, (1-(2-((2-(1-(Cyclopropylsulfonyl)-1H-pyrazol-4-yl)pyrimidin-4-yl)amino)-5-((4,5,6,7-tetrahydropyrazolo[1,5-a]pyrazin-3-yl)ethynyl)pyridin-4-yl)-4-methylpiperidin-4-yl)methanol]",0.4,0.2,0.4,0.2,853,1.6,0.2,0.1,3.4,0.3,,,,,,,,,,
"CN1CCn2ncc(C#Cc3cnc(Nc4ccnc(-c5cnn(S(=O)(=O)C6CC6)c5)n4)cc3N3CCC(C)(CO)CC3)c2C1 [Example 150, (1-(2-((2-(1-(Cyclopropylsulfonyl)-1H-pyrazol-4-yl)pyrimidin-4-yl)amino)-5-((5-methyl-4,5,6,7-tetrahydropyrazolo[1,5-a]pyrazin-3-yl)ethynyl)pyridin-4-yl)-4-methylpiperidin-4-yl)methanol]",0.7,0.8,0.5,0.5,3760,4.9,0.5,0.2,8.9,2.2,,,,,,,,,,
"CC1(CO)CCN(c2cc(Nc3ccnc(-c4cnn(S(=O)(=O)C5CC5)c4)n3)ncc2C#Cc2cnn3c2CN(CC(F)F)CC3)CC1 [Example 151, (1-(2-((2-(1-(Cyclopropylsulfonyl)-1H-pyrazol-4-yl)pyrimidin-4-yl)amino)-5-((5-(2,2-difluoroethyl)-4,5,6,7-tetrahydropyrazolo[1,5-a]pyrazin-3-yl)ethynyl)pyridin-4-yl)-4-methylpiperidin-4-yl)methanol]",3.5,,2.6,,> 10000,,3,,57.8,,4.2,2.4,29.4,1.1,8.6,,,,,
"CN(C)CCCn1cc(C#Cc2cnc(Nc3ccnc(-c4cnn(S(=O)(=O)C5CC5)c4)n3)cc2N2CCC3(CC2)CC(C)(O)C3)cn1 [Example 152, 7-(2-((2-(1-(Cyclopropylsulfonyl)-1H-pyrazol-4-yl)pyrimidin-4-yl)amino)-5-((1-(3-(dimethylamino)propyl)-1H-pyrazol-4-yl)ethynyl)pyridin-4-yl)-2-methyl-7-azaspiro[3.5]nonan-2-ol]",0.4,,0.3,,196,,0.2,,0.8,,0.1,0.2,0.6,0.1,0.2,,,,,
"Cn1cc(C#Cc2cnc(Nc3ccnc(-c4cnn(S(=O)(=O)C5CC5)c4)n3)cc2N2CCC3(CCNC3)CC2)cn1 [Example 156, 2-(1-(Cyclopropylsulfonyl)-1H-pyrazol-4-yl)-N-(5-((1-methyl-1H-pyrazol-4-yl)ethynyl)-4-(2,8-diazaspiro[4.5]decan-8-yl)pyridin-2-yl)pyrimidin-4-amine]",0.4,,0.1,,2100,,0.1,,9,,0.3,0.1,2.6,0.04,1.2,,,,,
"O=S(=O)(C1CC1)n1cc(-c2nccc(Nc3cc(N[C@H]4CC[C@@H](O)CC4)c(C#Cc4ccc(CN5CCOCC5)cc4)cn3)n2)cn1 [Example 157, (1s,4s)-4-((2-((2-(1-(Cyclopropylsulfonyl)-1H-pyrazol-4-yl)pyrimidin-4-yl)amino)-5-((4-(morpholinomethyl)phenyl)ethynyl)pyridin-4-yl)amino)cyclohexan-1-ol]",10.6,,3.6,,> 10000,,4.6,,40.8,,3.7,3.3,127,1.7,3.3,,,,,
"O=S(=O)(C1CC1)n1cc(-c2nccc(Nc3cc(N[C@@H]4CCC[C@H](O)C4)c(C#Cc4ccc(CN5CCOCC5)cc4)cn3)n2)cn1 [Example 160, (1S,3R)-3-((2-((2-(1-(Cyclopropylsulfonyl)-1H-pyrazol-4-yl)pyrimidin-4-yl)amino)-5-((4-(morpholinomethyl)phenyl)ethynyl)pyridin-4-yl)amino)cyclohexan-1-ol]",10.1,,7.3,,> 10000,,6.2,,65.6,,4.1,5.7,64.8,2.5,3.8,,,,,
"O=S(=O)(C1CC1)n1cc(-c2nccc(Nc3cc(N[C@H]4CCC[C@H](O)C4)c(C#Cc4ccc(CN5CCOCC5)cc4)cn3)n2)cn1 [Example 161, (1 S,3S)-3-((2-((2-(1-(Cyclopropylsulfonyl)-1H-pyrazol-4-yl)pyrimidin-4-yl)amino)-5-((4-(morpholinomethyl)phenyl)ethynyl)pyridin-4-yl)amino)cyclohexan-1-ol]",38.2,,8.8,,> 10000,,10.6,,547,,25.5,5.5,650,3.2,21.6,,,,,

# Next, values leading:
IC50 (EGFR Del19/C797S; [1]) [nM],IC50 (EGFR Del19/C797S; [2]) [nM],IC50 (EGFR Del19/T790M/C797S; [3]) [nM],IC50 (EGFR Del19/T790M/C797S; [4]) [nM],"IC50 (EGFR wildtype (WT); IC50 WT (nM), 100 μM ATP) [nM]",IC50 (EGFR wildtype (WT); [5]) [nM],IC50 (EGFR L858R/T790M/C797S; [6]) [nM],IC50 (EGFR L858R/T790M/C797S; [7]) [nM],IC50 (EGFR L858R/C797S; [8]) [nM],IC50 (EGFR L858R/C797S; [9]) [nM],IC50 (EGFR Del19/C797S; [10]) [nM],IC50 (EGFR Del19/T790M/C797S; [11]) [nM],IC50 (EGFR wildtype (WT); [12]) [nM],IC50 (EGFR L858R/T790M/C797S; [13]) [nM],IC50 (EGFR L858R/C797S; [14]) [nM],"IC50 (EGFR Del19/C797S; read-out: IC50 Del19/C797S (nM), 100 μM ATP) [nM]","IC50 (EGFR Del19/T790M/C797S; read-out: IC50 Del19/T790M/C797S (nM), 100 μM ATP) [nM]","IC50 (EGFR wildtype (WT); read-out: IC50 WT (nM), 100 μM ATP) [nM]","IC50 (EGFR L858R/T790M/C797S; read-out: IC50 L858R/T790M/C797S (nM), 100 μM ATP) [nM]","IC50 (EGFR L858R/C797S; read-out: IC50 L858R/C797S (nM), 100 μM ATP) [nM]",Compound
0.3,,0.1,,822,,0.1,,5.1,,0.3,0.1,1.9,0.04,1.8,,,,,,"CNCCC1CCN(c2cc(Nc3ccnc(-c4cnn(S(=O)(=O)C5CC5)c4)n3)ncc2C#Cc2cnn(C)c2)CC1 [Example 153, 2-(1-(Cyclopropylsulfonyl)-1H-pyrazol-4-yl)-N-(5-((1-methyl-1H-pyrazol-4-yl)ethynyl)-4-(4-(2-(methylamino)ethyl)piperidin-1-yl)pyridin-2-yl)pyrimidin-4-amine]"
12,,1.4,,6720,,4.3,,145,,6,0.4,44.4,0.3,6.4,,,,,,"Cn1cc(C#Cc2cnc(Nc3ccnc(-c4cnn(S(=O)(=O)C5CC5)c4)n3)cc2N2CCC3(CCNCC3)C2)cn1 [Example 154, 2-(1-(Cyclopropylsulfonyl)-1H-pyrazol-4-yl)-N-(5-((1-methyl-1H-pyrazol-4-yl)ethynyl)-4-(2,8-diazaspiro[4.5]decan-2-yl)pyridin-2-yl)pyrimidin-4-amine]"
34.3,,0.6,,> 10000,,1.9,,309,,20.8,0.6,90.6,0.5,19.4,,,,,,"Cn1cc(C#Cc2cnc(Nc3ccnc(-c4cnn(S(=O)(=O)C5CC5)c4)n3)cc2N2CC3(CCNCC3)C2)cn1 [Example 155, 2-(1-(Cyclopropylsulfonyl)-1H-pyrazol-4-yl)-N-(5-((1-methyl-1H-pyrazol-4-yl)ethynyl)-4-(2,7-diazaspiro[3.5]nonan-2-yl)pyridin-2-yl)pyrimidin-4-amine]"
,,,,,,,,,,18.3,6.2,523,2.5,15.3,131,6.8,> 10000,8.4,809,"C[C@]1(O)CC[C@@H](Nc2cc(Nc3ccnc(-c4cnn(S(=O)(=O)C5CC5)c4)n3)ncc2C#Cc2ccc(CN3CCOCC3)cc2)CC1 [Example 158, (1s,4s)-4-((2-((2-(1-(Cyclopropylsulfonyl)-1H-pyrazol-4-yl)pyrimidin-4-yl)amino)-5-((4-(morpholinomethyl)phenyl)ethynyl)pyridin-4-yl)amino)-1-methylcyclohexan-1-ol]"
21.7,,10.6,,> 10000,,9.6,,98.5,,7.7,8.3,85.5,3.4,7.4,,,,,,"O=S(=O)(C1CC1)n1cc(-c2nccc(Nc3cc(N[C@H]4CCC[C@@H](O)C4)c(C#Cc4ccc(CN5CCOCC5)cc4)cn3)n2)cn1 [Example 159, (1R,3S)-3-((2-((2-(1-(Cyclopropylsulfonyl)-1H-pyrazol-4-yl)pyrimidin-4-yl)amino)-5-((4-(morpholinomethyl)phenyl)ethynyl)pyridin-4-yl)amino)cyclohexan-1-ol]"
